{"source": "paper PMC4669708", "about": "(Cell Death & Disease, 2015)", "experiment_in_all_cases": "c-ponatinib pulldown LC-MS/MS", "type_in_all_cases": "binding", "key": {"MAP3K7": {"target": "T1, MAP3K7 (Homo sapiens, UniProt O43318)", "T1 sequence (O43318 1-606)": "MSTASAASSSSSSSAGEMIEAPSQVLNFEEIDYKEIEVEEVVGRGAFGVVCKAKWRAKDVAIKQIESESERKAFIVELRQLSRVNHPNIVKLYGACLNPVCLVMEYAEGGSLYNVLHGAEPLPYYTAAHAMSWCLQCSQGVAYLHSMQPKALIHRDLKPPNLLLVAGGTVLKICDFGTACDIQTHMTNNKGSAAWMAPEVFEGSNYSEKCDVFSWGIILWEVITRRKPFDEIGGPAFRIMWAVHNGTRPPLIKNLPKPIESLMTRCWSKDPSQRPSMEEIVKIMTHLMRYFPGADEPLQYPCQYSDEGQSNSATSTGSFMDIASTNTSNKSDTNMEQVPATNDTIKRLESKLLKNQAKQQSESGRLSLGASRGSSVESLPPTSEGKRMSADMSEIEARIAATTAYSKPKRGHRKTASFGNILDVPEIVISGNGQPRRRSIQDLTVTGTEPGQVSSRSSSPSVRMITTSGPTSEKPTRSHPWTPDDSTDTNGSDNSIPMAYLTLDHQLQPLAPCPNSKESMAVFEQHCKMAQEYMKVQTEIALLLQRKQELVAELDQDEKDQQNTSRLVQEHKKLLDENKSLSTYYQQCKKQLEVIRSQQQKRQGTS", "method": "(§1) Drug-affinity matrices were prepared as described previously.[51] In brief, 25 nmol of c-ponatinib were immobilized on 50 μl NHS-activated Sepharose 4 Fast Flow beads (GE Healthcare Bio-Sciences AB, Uppsala, Sweden). 10 mg whole cell lysate was used as protein input per replicate. Affinity chromatography and elution were performed in duplicate. After elution, the enriched proteins were reduced with dithiothreitol (DTT) and cysteine residues were alkylated by incubation with iodoacetamide. The samples were digested with modified porcine trypsin (Promega). Five percent of the digested eluates were purified and concentrated by C18 reversed-phase material. Subsequently, samples were analyzed in duplicates by gel-free one-dimensional LCMS.\n(§2) Precursor and MS/MS peaks were extracted from the RAW files and saved in the MGF format using msconvert tool (ProteoWizard Library v2.1.2708, www.proteowizard.sourceforge.net) for subsequent protein identification. An initial database search was performed with broader mass tolerance and conservative score threshold to re-calibrate the mass lists for optimal final protein identification. For the initial protein database search, Mascot (www.matrixscience.com, v2.3.02) was used. Error tolerances on the precursor and fragment ions were ±10 p.p.m. and ±0.6 Da, respectively, and the database search limited to fully-tryptic peptides with maximum one missed cleavage, carbamidomethyl cysteine and methionine oxidation set as fixed and variable modifications, respectively. The Mascot peptide ion score threshold was set to 30, and at least three peptide identifications per protein were required. Searches were performed against the human UniProtKB/SwissProt database (www.uniprot.org release 2013.01) including all protein isoforms. The initial peptide identifications were used to deduce independent linear transformations for precursor and fragment masses that would minimize the mean square deviation of measured masses from theoretical. Re-calibrated mass list files were searched against the same human protein database by a combination of Mascot and Phenyx (GeneBio SA, Geneva, Switzerland; version 2.5.14) search engines using narrower mass tolerances (±4 p.p.m. and ±0.3 Da). One missed tryptic cleavage site was allowed. Carbamidomethyl cysteine was set as a fixed modification and oxidized methionine was set as a variable modification. To validate the proteins, Mascot and Phenyx output files were processed by internally developed parsers. Proteins with ≥2 unique peptides above a score T1, or with a single peptide above a score T2 were selected as unambiguous identifications. Additional peptides for these validated proteins with score >T3 were also accepted. For Mascot searches, the following thresholds were used: T1=14, T2=40 and T3=10; Phenyx thresholds were set to 4.2, 4.75 and 3.5, respectively (P-value<10^−3). The validated proteins retrieved by the two algorithms were merged, any spectral conflicts discarded and grouped according to shared peptides. A false discovery rate of <1% for protein identifications and <0.1% for peptides (including the ones exported with lower scores) was determined by applying the same procedure against a database of reversed protein sequences. […] In addition to Mascot protein scores that were proposed as an estimate of protein abundance by the original algorithm, the modified version also included Phenyx protein scores and spectral counts. The algorithm first estimated three measure-specific P-values for each putative interaction, and, in contrast to,[69] P-value calculation utilized the quantiles of the measurements rather than the original data. The Fisher's method was used to combine the three resulting P-values into a single P-value for drug–protein interaction specificity. We have also correlated interaction P-values with the magnitude of competition effect represented by the fold reduction of spectral counts on free compound competition. […]"}, "MAPKAPK2": {"target": "MAPKAPK2 (Homo sapiens, UniProt P49137)", "sequence (P49137 whole entry)": "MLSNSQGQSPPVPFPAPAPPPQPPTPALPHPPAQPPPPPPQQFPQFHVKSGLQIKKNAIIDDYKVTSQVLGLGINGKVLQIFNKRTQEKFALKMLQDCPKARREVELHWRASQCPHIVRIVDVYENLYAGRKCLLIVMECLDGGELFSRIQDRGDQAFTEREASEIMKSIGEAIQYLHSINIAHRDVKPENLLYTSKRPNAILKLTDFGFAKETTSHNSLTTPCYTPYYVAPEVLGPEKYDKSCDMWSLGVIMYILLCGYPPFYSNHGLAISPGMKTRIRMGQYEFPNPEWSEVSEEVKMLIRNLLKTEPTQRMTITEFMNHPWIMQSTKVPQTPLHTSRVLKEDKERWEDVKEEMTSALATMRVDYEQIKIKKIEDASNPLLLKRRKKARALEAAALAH", "method": "as §1, §2"}, "MAPKAPK3": {"target": "MAPKAPK3 (Homo sapiens, UniProt Q16644)", "sequence (Q16644 whole entry)": "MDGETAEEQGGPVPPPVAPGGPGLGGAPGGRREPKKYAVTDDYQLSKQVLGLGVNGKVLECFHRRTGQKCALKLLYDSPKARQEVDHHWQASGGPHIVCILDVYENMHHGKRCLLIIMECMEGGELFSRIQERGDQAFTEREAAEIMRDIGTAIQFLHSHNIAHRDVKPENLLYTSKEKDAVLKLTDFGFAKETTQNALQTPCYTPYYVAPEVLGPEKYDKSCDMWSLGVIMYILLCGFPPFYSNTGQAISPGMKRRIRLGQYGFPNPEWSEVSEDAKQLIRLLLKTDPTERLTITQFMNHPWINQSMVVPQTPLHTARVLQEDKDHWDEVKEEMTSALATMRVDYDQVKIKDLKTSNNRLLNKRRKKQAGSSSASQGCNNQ", "method": "as §1, §2"}, "NAP1L1": {"target": "T2, NAP1L1 (Homo sapiens, UniProt P55209)", "T2 sequence (P55209 1-391)": "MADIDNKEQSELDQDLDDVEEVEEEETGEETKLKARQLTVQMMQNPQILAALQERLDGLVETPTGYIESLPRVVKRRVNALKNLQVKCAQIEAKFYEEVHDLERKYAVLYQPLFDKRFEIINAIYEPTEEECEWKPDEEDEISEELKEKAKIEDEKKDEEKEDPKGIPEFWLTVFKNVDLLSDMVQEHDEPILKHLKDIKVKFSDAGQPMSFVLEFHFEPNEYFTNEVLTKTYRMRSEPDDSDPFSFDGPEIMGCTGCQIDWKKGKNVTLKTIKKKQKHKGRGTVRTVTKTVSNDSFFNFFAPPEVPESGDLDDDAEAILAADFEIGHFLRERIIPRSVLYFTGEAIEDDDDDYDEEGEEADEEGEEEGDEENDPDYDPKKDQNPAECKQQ", "method": "as §1, §2"}, "STK10": {"target": "STK10 (Homo sapiens, UniProt O94804)", "sequence (O94804 whole entry)": "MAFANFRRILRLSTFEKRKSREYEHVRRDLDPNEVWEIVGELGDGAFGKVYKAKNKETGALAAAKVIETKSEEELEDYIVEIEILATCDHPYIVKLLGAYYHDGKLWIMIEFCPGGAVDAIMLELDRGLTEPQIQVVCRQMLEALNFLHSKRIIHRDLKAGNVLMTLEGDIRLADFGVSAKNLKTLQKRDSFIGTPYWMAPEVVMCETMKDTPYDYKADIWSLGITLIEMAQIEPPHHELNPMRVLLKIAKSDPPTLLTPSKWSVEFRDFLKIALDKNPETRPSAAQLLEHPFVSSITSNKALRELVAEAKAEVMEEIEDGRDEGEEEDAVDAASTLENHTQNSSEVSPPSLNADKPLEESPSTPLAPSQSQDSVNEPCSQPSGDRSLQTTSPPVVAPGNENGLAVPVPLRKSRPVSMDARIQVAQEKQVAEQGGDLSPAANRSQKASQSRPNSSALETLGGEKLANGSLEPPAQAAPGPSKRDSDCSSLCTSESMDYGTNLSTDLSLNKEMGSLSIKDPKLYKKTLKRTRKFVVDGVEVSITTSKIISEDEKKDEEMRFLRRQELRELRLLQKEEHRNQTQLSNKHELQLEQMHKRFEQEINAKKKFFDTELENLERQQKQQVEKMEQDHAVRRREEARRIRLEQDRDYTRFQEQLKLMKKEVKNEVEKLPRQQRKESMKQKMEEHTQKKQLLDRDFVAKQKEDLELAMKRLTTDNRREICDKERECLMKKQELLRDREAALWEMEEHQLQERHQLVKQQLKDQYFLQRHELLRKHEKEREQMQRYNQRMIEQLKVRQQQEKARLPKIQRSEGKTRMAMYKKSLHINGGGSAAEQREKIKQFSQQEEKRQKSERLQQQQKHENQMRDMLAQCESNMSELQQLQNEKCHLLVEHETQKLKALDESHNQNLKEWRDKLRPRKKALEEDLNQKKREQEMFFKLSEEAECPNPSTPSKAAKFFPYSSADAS", "method": "as §1, §2"}, "TESK2": {"target": "TESK2 (Homo sapiens, UniProt Q96S53)", "sequence (Q96S53 whole entry)": "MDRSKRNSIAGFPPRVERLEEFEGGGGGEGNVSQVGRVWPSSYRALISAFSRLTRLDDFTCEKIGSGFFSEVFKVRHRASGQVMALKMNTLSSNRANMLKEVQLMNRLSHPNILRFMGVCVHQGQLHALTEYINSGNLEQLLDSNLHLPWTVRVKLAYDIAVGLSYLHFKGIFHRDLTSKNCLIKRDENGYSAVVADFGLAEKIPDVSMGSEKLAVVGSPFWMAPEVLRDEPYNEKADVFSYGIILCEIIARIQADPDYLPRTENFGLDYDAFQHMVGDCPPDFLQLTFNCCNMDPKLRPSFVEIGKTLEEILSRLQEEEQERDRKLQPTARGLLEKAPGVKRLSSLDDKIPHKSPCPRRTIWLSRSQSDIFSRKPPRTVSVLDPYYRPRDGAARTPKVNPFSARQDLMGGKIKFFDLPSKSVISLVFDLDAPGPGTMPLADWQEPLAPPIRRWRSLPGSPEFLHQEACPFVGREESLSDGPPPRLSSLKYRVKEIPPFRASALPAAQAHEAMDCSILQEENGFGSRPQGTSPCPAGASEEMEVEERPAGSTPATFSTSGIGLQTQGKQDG", "method": "as §1, §2"}}}
{"smiles": "Cc1ccc(C(=O)Nc2ccc(CN3CCN(CCCN)CC3)c(C(F)(F)F)c2)cc1C#Cc1cnc2cccnn12", "note": "[c-ponatinib]", "values": [{"measurement": "Av. SC comp.", "setting": "MAP3K7; + free ponatinib", "result": 2.25}, {"measurement": "Total SC comp.", "setting": "MAP3K7; + free ponatinib", "result": 9}, {"measurement": "Av. SC", "setting": "MAP3K7; no competitor", "result": 19.5}, {"measurement": "Total SC", "setting": "MAP3K7; no competitor", "result": 78}, {"measurement": "Av. SC comp.", "setting": "MAPKAPK2; + free ponatinib", "result": 0}, {"measurement": "Total SC comp.", "setting": "MAPKAPK2; + free ponatinib", "result": 0}, {"measurement": "Av. SC", "setting": "MAPKAPK2; no competitor", "result": 23.5}, {"measurement": "Total SC", "setting": "MAPKAPK2; no competitor", "result": 94}, {"measurement": "Av. SC comp.", "setting": "MAPKAPK3; + free ponatinib", "result": 0}, {"measurement": "Total SC comp.", "setting": "MAPKAPK3; + free ponatinib", "result": 0}, {"measurement": "Av. SC", "setting": "MAPKAPK3; no competitor", "result": 10.5}, {"measurement": "Total SC", "setting": "MAPKAPK3; no competitor", "result": 42}, {"measurement": "Av. SC comp.", "setting": "NAP1L1; + free ponatinib", "result": 1.25}, {"measurement": "Total SC comp.", "setting": "NAP1L1; + free ponatinib", "result": 5}, {"measurement": "Av. SC", "setting": "NAP1L1; no competitor", "result": 2}, {"measurement": "Total SC", "setting": "NAP1L1; no competitor", "result": 8}, {"measurement": "Av. SC comp.", "setting": "STK10; + free ponatinib", "result": 0}, {"measurement": "Total SC comp.", "setting": "STK10; + free ponatinib", "result": 0}, {"measurement": "Av. SC", "setting": "STK10; no competitor", "result": 5.5}, {"measurement": "Total SC", "setting": "STK10; no competitor", "result": 22}, {"measurement": "Av. SC comp.", "setting": "TESK2; + free ponatinib", "result": 0}, {"measurement": "Total SC comp.", "setting": "TESK2; + free ponatinib", "result": 0}, {"measurement": "Av. SC", "setting": "TESK2; no competitor", "result": 5}, {"measurement": "Total SC", "setting": "TESK2; no competitor", "result": 20}]}
